From publication PMC6397271 (Scientific Reports, 2019) come the findings set out here.

One data set deals with S.aureus MRSA N315. Briefly: microbe, parasite or virus in culture. The format is cell-based, Staphylococcus aureus. As to conditions: TP10 alone. On the procedure: (§1) To find out MICA(with B) and MICB(with A) a checkerboard assay was carried out in 96-well microtiter plates (each test was performed in triplicates). […] Each well in a 96-well plate was inoculated with 100 µL of bacterial inoculum of 1 × 10^5 CFU/mL. For this purpose only bacterial strains of MRSA (N315, 12673 and 6347) were used. Next, the plates were incubated at 37 °C for 24 h.
(§2) FIC index (FICI) is the sum of FICA and FICB. The interpretation of the calculated FICIs is in accordance to the following principle: FICI ≤ 0.5 synergy; FICI > 0.5 and ≤4 indifference (no interaction); FICI > 4, antagonism.

In data set [1] the test system is S.aureus MRSA hetero-VISA 6347. Briefly: microbe, parasite or virus in culture. In kind it is cell-based, Staphylococcus aureus. As to conditions: TP10 alone. On the procedure:
as §1, §2

Another data set concerns S.aureus MRSA 12673. Briefly: microbe, parasite or virus in culture. In kind it is cell-based, Staphylococcus aureus. As to conditions: TP10 alone. On the procedure: as §1, §2
The test system of data set [2] is Enterococcus faecalis 3937158. Briefly: microbe, parasite or virus in culture. In kind it is cell-based. As to conditions: microbroth dilution, 96-well, resazurin, 37 °C, 24 h; mean ± SD, at least three independent experiments in triplicates. From the text:
(§3) Three bacterial strains of MRSA (N315, 12673, 6347) and two of Enterococcus spp. (E. faecium, E. faecalis) were used. With respect to MRSA, N315 represented a reference Van-susceptible strain (GenBank GCA_00000645.1) isolated from a patient while 12673 (Van-intermediately susceptible) and 6347 (a h-VISA which appears at frequency of <10^−5 to 10^−6 is composed of two subpopulations of bacteria: one susceptible and one intermediately resistant)[38] were clinical strains obtained from patients of The Clinical University Centre of Gdańsk (UCK). […] The clinical strain isolates originated from the collection of the Department of Pharmaceutical Technology and Biochemistry, Faculty of Chemistry, Gdańsk University of Technology.
(§4) The strains were grown in Mueller-Hinton broth (MH cation-adjusted, Becton Dickinson) or Brain Heart Infusion broth (BHI, Becton Dickinson), respectively. The cultivation was carried out in an aerobic atmosphere at 37 °C for 24 hours and, afterwards, the bacterial cultures were diluted in geometric progression with a proper broth. Next, 100 µl of each dilution was inoculated in an agar plate and incubated at 37 °C for 24 h. The next procedures included determination of Colony Forming Units (CFU)/ml and minimal inhibitory concentration (MIC) of the compounds in question. The latter procedure was carried out according to the microbroth dilution technique using 96-well plates. The MICs were evaluated by using the metabolic assay based on the resazurin dye. The assay was performed in triplicates.
For orientation: Dilution methods test growth across graded concentrations, often in twofold steps.

Data set [3] has as its system Enterococcus faecium 3934825. Briefly: microbe, parasite or virus in culture. The format is cell-based. As to conditions: microbroth dilution, 96-well, resazurin, 37 °C, 24 h; mean ± SD, at least three independent experiments in triplicates.
Text: as §3, §4

For data set [4], the system named is S. aureus MRSA hetero-VISA 6347. Briefly: microbe, parasite or virus in culture. The format is cell-based, Staphylococcus aureus. As to conditions: microbroth dilution, 96-well, resazurin, 37 °C, 24 h; mean ± SD, at least three independent experiments in triplicates.
Text: as §3, §4

A further data set deals with S. aureus MRSA 12673. Briefly: microbe, parasite or virus in culture. The format is cell-based, Staphylococcus aureus. As to conditions: microbroth dilution, 96-well, resazurin, 37 °C, 24 h; mean ± SD, at least three independent experiments in triplicates.
Text: as §3, §4

In a further data set the test system is S. aureus MRSA N315. Briefly: microbe, parasite or virus in culture. The format is cell-based, Staphylococcus aureus. As to conditions: microbroth dilution, 96-well, resazurin, 37 °C, 24 h; mean ± SD, at least three independent experiments in triplicates.
Text: as §3, §4

In data set [5] the test system is intracellular MRSA 12673 strain in HEK293 cells. Briefly: Intracellular antimicrobial (infection) assay. In kind it is cell-based, Staphylococcus aureus. As to conditions: MRSA-infected HEK293 cells, 25 µM, 24 h. On the procedure:
HEK293 (human embryonic kidney) cells were purchased form Cell Line Services (Germany). The cells were cultured in Dulbecco’s Modified Eagle’s (DMEM) medium with 4.5 g/l glucose (Sigma-Aldrich, Germany), supplemented with 10% fetal bovine serum (FBS, Sigma-Aldrich, Germany) and 1% PEN/STREP (Sigma-Aldrich, Germany). Cells were maintained in a 5% CO2 incubator at 37 °C. The original lines were checked for the presence of mycoplasma.
HEK293 cells were seeded at a density of 1.5 × 10^5 cells/well in 24-well plates in an antibiotic-free medium (DMEM + 10% FBS) and were allowed to adhere overnight. Next, the medium was removed and overnight culture of S. aureus strain (12673) suspended in DMEM + 1% FBS (invasive medium) at a ratio of bacteria/cells 25:1 was added. To enable bacterial invasion, the cells were incubated with bacterial suspensions (37 °C, 5% CO2) for 2 h.
After this period of time extracellular bacteria were eliminated by a 30 min incubation with 20 U/ml lysostaphin. […] The lysis of human cells was carried out with 0.2% Trition-X-100 (Sigma-Aldrich, Germany). The obtained cell lysates were serially diluted in PBS and plated on agar plates and CFU/ml was determined.
The results are presented as the percentage of S. aureus intracellular survival after treatment in comparison to that of non-treated cells (control). The assay was performed in triplicates.

Data set [6] in a line: Brain concentration by LC/MS after iv administration. The format is in vivo, BALB/c male mice. As to conditions: iv, 2 h, LC/MS of brain homogenate. The method, then: In vivo experiments were performed on BALB/c male mice weighing between 20 and 30 g (the mouse model is widely used for estimation of drug BBB penetration). The animals (obtained from TAZD-CBU) were kept in a 12-hour day and night cycle at room temperature (20–22 °C), humidity 55–56% and fed with a standard diet and water ad libitum for at least 1 week before the experiment. Body temperature and weight were recorded on a regular daily schedule. It is confirmed that all procedures were carried out according to the guidelines outlined by the European Community Council Directive 2010/63/EEC, and they were approved by the local Ethical Committee Resolution 26/2014 (Bydgoszcz, Poland).
The experiments in this section also involved the mouse model described above. […] Similarly to what was stated previously, the mice were sacrificed 2 hours after the administration of the compounds. Their brains were removed immediately from the cranium and weighed. Next, they were homogenized mechanically in the ice and frozen at −80 °C.
Each homogenized mouse brain was centrifuged at 15 000 × g for 10 min. The supernatant was diluted with deionised water (Millipore), filtered (PTFE 0.22 μm filter) and analyzed by UHPLC-ESI/MS with the use of Shimadzu Nexera X2 UHPCL chromatograph and Shimadzu LCMS-2020 mass detector. […]

Values after ≈ are worked out from the molar mass of the structure shown.

As for `CC[C@H](C)[C@H](NC(=O)[C@H](CCCCN)NC(=O)[C@H](CCCCN)NC(=O)[C@H](C)NC(=O)[C@H](CC(C)C)NC(=O)[C@H](C)NC(=O)[C@H](C)NC(=O)[C@H](CC(C)C)NC(=O)[C@H](C)NC(=O)[C@H](CCCCN)NC(=O)[C@H](CC(C)C)NC(=O)[C@H](CC(N)=O)NC(=O)[C@@H](NC(=O)[C@H](CCCCN)NC(=O)CNC(=O)[C@H](CC(C)C)NC(=O)[C@H](CC(C)C)NC(=O)[C@H](Cc1ccc(O)cc1)NC(=O)CNC(=O)[C@H](C)N)[C@@H](C)CC)C(=O)N[C@@H](CC(C)C)C(N)=O` [TP10, transportan 10, reference compound], the “MIC TP10 (B), MICB” value is recorded as 6.3 µM in the data set with S.aureus MRSA N315, 12.5 µM in [1] and 6.3 µM in the data set with S.aureus MRSA 12673. The “MIC” value in data set [2] worked out at 12.5 ± 2.2 µM (≈ 27.3 µg/mL); in data set [3], 12.5 ± 3.4 µM (≈ 27.3 µg/mL); in [4], 12.5 ± 3.2 µM (≈ 27.3 µg/mL); against S. aureus MRSA 12673, 6.3 ± 1.6 µM (≈ 13.7 µg/mL); against S. aureus MRSA N315 it was 6.3 ± 1.3 µM (≈ 13.7 µg/mL). Moreover, the “intracellular MRSA killed (bacterial killing rate)” value in data set [5] is on record as 26%. In data set [6], the “access to the brain / BBB penetration (in words)” value is on record as “did not gain access to the brain”.
